What was measured:
TLR7 = molecular target: T1, TLR7 (Homo sapiens, UniProt Q9NYK1); assay: TLR7 human PBMC cell-based assay (antagonist, GS-986 stimulated cytokine release); details: human PBMCs; TLR7 agonist GS-986 400 nM, 6 hours; cytokines (IL-6 and IFNα) in supernatant; read-out: TLR-7 EC50
T1 construct: Human peripheral blood mononuclear cells (PBMCs) consist of lymphocytes, monocytes and dendritic cells that express TLR7, TLR8 and TLR9; endogenous in cells; host or cells: cryopreserved human PBMCs from healthy donors
T1 sequence (Q9NYK1 27-1049): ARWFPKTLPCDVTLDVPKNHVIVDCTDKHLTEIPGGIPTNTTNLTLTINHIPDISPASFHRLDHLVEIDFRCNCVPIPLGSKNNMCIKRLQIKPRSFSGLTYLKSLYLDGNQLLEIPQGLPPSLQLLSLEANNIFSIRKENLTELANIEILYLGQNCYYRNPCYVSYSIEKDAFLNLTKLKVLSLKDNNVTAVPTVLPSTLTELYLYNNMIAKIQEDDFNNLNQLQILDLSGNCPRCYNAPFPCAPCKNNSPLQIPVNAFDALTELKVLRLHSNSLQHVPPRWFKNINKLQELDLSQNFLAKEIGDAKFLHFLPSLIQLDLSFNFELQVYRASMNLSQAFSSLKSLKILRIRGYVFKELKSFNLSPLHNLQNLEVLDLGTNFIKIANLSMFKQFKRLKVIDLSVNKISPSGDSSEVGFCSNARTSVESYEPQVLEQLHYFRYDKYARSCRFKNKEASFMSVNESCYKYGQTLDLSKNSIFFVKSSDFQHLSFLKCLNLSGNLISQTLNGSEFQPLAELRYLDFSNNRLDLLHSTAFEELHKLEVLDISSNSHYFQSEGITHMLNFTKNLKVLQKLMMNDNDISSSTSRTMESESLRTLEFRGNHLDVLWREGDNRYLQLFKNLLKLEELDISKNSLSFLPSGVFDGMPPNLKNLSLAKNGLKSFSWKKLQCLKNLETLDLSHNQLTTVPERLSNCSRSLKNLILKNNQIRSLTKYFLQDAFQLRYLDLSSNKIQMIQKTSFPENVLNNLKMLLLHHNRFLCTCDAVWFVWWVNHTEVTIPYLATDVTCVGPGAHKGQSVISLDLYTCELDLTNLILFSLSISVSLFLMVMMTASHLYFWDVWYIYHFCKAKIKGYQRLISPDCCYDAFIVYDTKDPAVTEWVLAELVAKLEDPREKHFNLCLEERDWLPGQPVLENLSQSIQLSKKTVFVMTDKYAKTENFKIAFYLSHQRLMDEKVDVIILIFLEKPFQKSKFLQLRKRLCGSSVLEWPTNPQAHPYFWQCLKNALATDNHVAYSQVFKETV
Procedure, shortened: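 Cryopreserved healthy-donor PBMCs (100,000/well, RPMI-1640 + 10% FBS) pre-incubated 1 h at 37 °C with antagonist (10-point dose response, quadruplicate), then stimulated 6 h with GS-986 at 400 nM final. Supernatant IL-6 and IFNα measured by electrochemiluminescence immunoassay; EC50 from sigmoidal fit.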

TLR8 = molecular target: T2, TLR8 (Homo sapiens, UniProt Q9NR97); assay: TLR8 human PBMC cell-based assay (antagonist, Compound A stimulated cytokine release); details: human PBMCs; TLR8 agonist Compound A 800 nM, 6 hours; cytokines (TNFa and IL 12p40) in supernatant; read-out: TLR-8 EC50
T2 construct: Human peripheral blood mononuclear cells (PBMCs) consist of lymphocytes, monocytes and dendritic cells that express TLR7, TLR8 and TLR9; endogenous in cells; host or cells: cryopreserved human PBMCs from healthy donors
T2 sequence (Q9NR97 27-1041): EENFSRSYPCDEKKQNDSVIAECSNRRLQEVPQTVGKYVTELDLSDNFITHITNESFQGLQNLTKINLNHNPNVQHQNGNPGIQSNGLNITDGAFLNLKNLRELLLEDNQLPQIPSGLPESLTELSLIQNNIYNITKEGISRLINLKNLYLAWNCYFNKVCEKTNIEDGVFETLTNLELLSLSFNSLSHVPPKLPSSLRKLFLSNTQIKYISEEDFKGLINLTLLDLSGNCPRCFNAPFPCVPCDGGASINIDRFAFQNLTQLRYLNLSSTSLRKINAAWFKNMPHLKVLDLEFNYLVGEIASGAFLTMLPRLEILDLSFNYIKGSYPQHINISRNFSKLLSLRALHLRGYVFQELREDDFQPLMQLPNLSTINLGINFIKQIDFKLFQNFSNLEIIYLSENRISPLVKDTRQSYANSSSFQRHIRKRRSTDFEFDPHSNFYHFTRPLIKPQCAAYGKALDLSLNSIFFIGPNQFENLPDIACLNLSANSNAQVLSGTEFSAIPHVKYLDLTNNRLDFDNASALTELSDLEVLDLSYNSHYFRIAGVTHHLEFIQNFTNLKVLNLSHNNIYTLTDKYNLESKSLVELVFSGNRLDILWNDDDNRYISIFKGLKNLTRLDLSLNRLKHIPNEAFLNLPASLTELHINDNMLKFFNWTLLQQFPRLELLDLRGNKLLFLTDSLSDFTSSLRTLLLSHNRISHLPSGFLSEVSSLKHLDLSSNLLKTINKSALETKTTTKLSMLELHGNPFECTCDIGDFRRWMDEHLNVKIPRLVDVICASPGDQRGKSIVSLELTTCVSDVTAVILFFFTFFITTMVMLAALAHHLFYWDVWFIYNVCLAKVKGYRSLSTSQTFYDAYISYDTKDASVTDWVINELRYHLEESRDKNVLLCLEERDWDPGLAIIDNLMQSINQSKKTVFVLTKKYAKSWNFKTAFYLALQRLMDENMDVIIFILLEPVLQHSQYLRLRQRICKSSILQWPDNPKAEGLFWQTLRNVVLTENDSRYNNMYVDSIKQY
Procedure, shortened: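 Cryopreserved donor PBMCs (100,000/well, RPMI + 10% FBS) were preincubated 1 h with antagonist (10-point dose response, quadruplicate), then stimulated with Compound A (800 nM final) for 6 h at 37 °C. TNFa and IL-12p40 in supernatants were measured by electrochemiluminescence; sigmoidal fits gave EC50.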

Structure (SMILES)	EC50 (TLR7)	EC50 (TLR8)
Cc1cc(-c2[nH]c3cc(C4CC5CNCC5C4)sc3c2C(C)C)cn2ncnc12 (stereo not shown) [Example 158]	0.2 nM	12.9 nM
Cc1cc(-c2[nH]c3cc(C4CC5CCC(C4)N5)sc3c2C(C)C)cn2ncnc12 (stereo not shown) [Example 156]	0.1 nM	8.8 nM
Cc1cc(-c2[nH]c3cc(C4CCCC5(CNC5)C4)sc3c2C(C)C)cn2ncnc12 (stereo not shown) [Example 159]	1.2 nM	37.5 nM
Cc1cc(-c2[nH]c3cc(C(=O)N(C)CCCN(C)C)sc3c2C(C)C)cn2ncnc12 [Example 94]	1 nM	4.7 nM
Cc1cc(-c2[nH]c3cc(-c4nnc(C5CCN(CC(N)=O)CC5)s4)sc3c2C(C)C)cn2ncnc12 [Example 168]	2.7 nM	2.8 nM
Cc1cc(-c2[nH]c3cc(C(=O)N4CCNC(C(F)F)C4)sc3c2C(C)C)cn2ncnc12 (stereo not shown) [Example 130]	40.7 nM	28.6 nM
Cc1cc(-c2[nH]c3cc(C(=O)N(C)CCN(C)C4CC4)sc3c2C(C)C)cn2ncnc12 [Example 100]	9.6 nM	22.5 nM
Cc1cc(-c2[nH]c3cc(C(=O)N4CCCC(CN)C4)sc3c2C(C)C)cn2ncnc12 (stereo not shown) [Example 111]	1.5 nM	7.2 nM
Cc1cc(-c2[nH]c3cc(-c4nnc(N5CCNCC5)o4)sc3c2C(C)C)cc(C)n1 [Example 53]	74.7 nM	16 nM
Cc1cc(-c2[nH]c3cc(C(=O)N(C)Cc4cccnc4)sc3c2C(C)C)cn2ncnc12 [Example 137]	44.3 nM	137 nM
CN[C@H]1CCN(C(=O)c2cc3[nH]c(-c4cc(C)c5ncnn5c4)c(C(C)C)c3s2)C1 [Example 73]	4.9 nM	1.7 nM
Cc1cc(-c2[nH]c3cc(C(=O)N4CCN[C@@H](c5ccccc5)C4)sc3c2C(C)C)cn2ncnc12 [Example 119]	42.4 nM	0.3 nM
Cc1cc(-c2[nH]c3cc(C(=O)N4CC[C@@H](CN)C4)sc3c2C(C)C)cn2ncnc12 [Example 146]	19 nM	27.2 nM
Cc1cc(-c2[nH]c3cc(C(=O)N(C)[C@H]4CCNC4)sc3c2C(C)C)cc(C)n1 [Example 23]	19.9 nM	68 nM
CCc1c(-c2cc(C)c3ncnn3c2)[nH]c2cc(-c3nc(N4CCNCC4)no3)sc12 [Example 47]	0.6 nM	2.1 nM
Cc1cc(-c2[nH]c3cc(C(=O)N(C)C4CCN(CCO)CC4)sc3c2C(C)C)cn2ncnc12 [Example 141]	1.3 nM	2.7 nM
Cc1cc(-c2[nH]c3cc(C(=O)N(C)C4CCNCC4)sc3c2C(C)C)cn2ncnc12 [Example 56, 6-isopropyl-N-methyl-5-(8-methyl-[1,2,4]triazolo[1,5-a]pyridin-6-yl)-N-(4-piperidyl)-4H-thieno[3,2-b]pyrrole-2-carboxamide]	0.5 nM	10.2 nM
Cc1cc(-c2[nH]c3cc(C(=O)N(C4CCC4)C4CCNCC4)sc3c2C(C)C)cn2ncnc12 [Example 84]	1.1 nM	25.1 nM
Cc1cc(-c2[nH]c3cc(C(=O)N4CC[C@@H](F)[C@@H](N)C4)sc3c2C(C)C)cc(C)n1 [Example 27]	72 nM	123 nM

Next, values leading:

EC50 (TLR7)	EC50 (TLR8)	Structure (SMILES)
1.7 nM	3.1 nM	Cc1c(-c2[nH]c3cc(-c4ccc(N5CCNCC5)cc4)sc3c2C(C)C)cn2ncnc2c1C [Example 231]
0.19 nM	5.93 nM	Cc1cc(-c2[nH]c3cc(C4CC5CN(CC(N)=O)CC5C4)sc3c2C(C)C)cn2ncnc12 (stereo not shown) [Example 289]
337 nM	66.7 nM	CCc1c(-c2cc(C)c3ncnn3c2)[nH]c2cc(-c3nc4ccc(N5CCNCC5)cc4[nH]3)sc12 [Example 245]
49.5 nM	19.5 nM	Cc1cc(-c2[nH]c3cc(C4CC(C)(C)NC(C)(C)C4)sc3c2C(C)C)cn2ncnc12 [Example 294]
53.4 nM	191 nM	Cc1cc(-c2[nH]c3cc(C(=O)N(C)C4CCC(N5CC(F)(F)C5)CC4)sc3c2C(C)C)cn2ncnc12 (stereo not shown) [Example 246, N-(4-(3,3-difluoroazetidin-1-yl)cyclohexyl)-6-isopropyl-N-methyl-5-(8-methyl-[1,2,4]triazolo[1,5-a]pyridin-6-yl)-4H-thieno[3,2-b]pyrrole-2-carboxamide]
1.3 nM	17.4 nM	Cc1cc(-c2[nH]c3cc(C(=O)N(C)C4CCN(CC(N)=O)CC4)sc3c2C(C)C)cn2ncnc12 [Example 178]
0.3 nM	2 nM	Cc1cc(-c2[nH]c3cc(C4CCC(N5CC6(COC6)C5)CC4)sc3c2C(C)C)cn2ncnc12 (stereo not shown) [Example 260]
0.4 nM	0.5 nM	Cc1c(-c2[nH]c3cc(-c4ccc(N5CCNCC5)nc4)sc3c2C(C)C)cn2ncnc2c1C [Example 228]
1.8 nM	4.9 nM	Cc1cc(-c2[nH]c3cc(-c4ccc(N5CCN(C)CC5)c(F)c4)sc3c2C(C)C)cn2ncnc12 [Example 272, 2-(3-Fluoro-4-(4-methylpiperazin-1-yl)phenyl)-6-isopropyl-5-(8-methyl-[1,2,4]triazolo[1,5-a]pyridin-6-yl)-4F1-thieno[3,2-b]pyrrole]
1.32 nM	11.7 nM	Cc1cc(-c2[nH]c3cc(C4CC5CCC4CN5)sc3c2C(C)C)cn2ncnc12 (stereo not shown) [Example 282]
52 nM	217 nM	Cc1cc(-c2[nH]c3cc(C4CCN(CC(N)=O)C5(CCC5)C4)sc3c2C(C)C)cn2ncnc12 (stereo not shown) [Example 301]
9 nM	35.6 nM	Cc1cc(-c2[nH]c3cc(C(=O)N(C)[C@H]4CNC[C@@H](C(F)(F)F)C4)sc3c2C(C)C)cn2ncnc12 [Example 275]
0.2 nM	1.6 nM	Cc1cc(-c2[nH]c3cc(-c4ccc5nc(C6N[C@@H]7CC[C@H]6C7)[nH]c5c4)sc3c2C(C)C)cn2ncnc12 (stereo partly shown) [Example 212]
2.36 nM	5.14 nM	CC(C)c1c(-c2cc(C(F)(F)F)c3ncnn3c2)[nH]c2cc(C(=O)N3CCNCC3)sc12 [Example 305]
7.6 nM	19.5 nM	Cc1cc(-c2[nH]c3cc(C(=O)N(C)C4CCC(N5CC6CCC(C5)O6)CC4)sc3c2C(C)C)cn2ncnc12 (stereo not shown) [Example 248]
2.2 nM	9.7 nM	Cc1cc(-c2[nH]c3cc(C4CCC(NC5CC6CC5O6)CC4)sc3c2C(C)C)cn2ncnc12 (stereo not shown) [Example 261]

From patent US20240217990A1 (Gilead Sciences, Inc., priority 2021, published 2024)
